SMILES strings stand for the structures. In brackets after ≈: the same amount, converted by molar mass.

Common to all, as to type: functional
For test [1], the system named is Staphylococcus aureus. Put plainly: Antimicrobial activity against methicillin-sensitive Staphylococcus aureus ATCC 29213.
Test [2] relates to Klebsiella pneumoniae. Put plainly: Antimicrobial activity against NDM-1 producing Klebsiella pneumoniae ATCC BAA-2146.
The test system of a further test is Providencia rettgeri. Put plainly: Antimicrobial activity against Providencia rettgeri ATCC 31052.
The test system of the next test is Enterococcus faecium. Put plainly: Antimicrobial activity against vancomycin-resistant Enterococcus faecium ATCC 700221.
Another test concerns Citrobacter freundii. Put plainly: Antimicrobial activity against Citrobacter freundii ATCC 43864.
Test [3] has as its system Acinetobacter calcoaceticus. Put plainly: Antimicrobial activity against Acinetobacter calcoaceticus ATCC 19606.
The test system of test [4] is Staphylococcus aureus. Put plainly: Antimicrobial activity against methicillin- resistant Staphylococcus aureus ATCC 33591.
The next test has as its system Proteus vulgaris. Put plainly: Antimicrobial activity against Proteus vulgaris ATCC 29905.
For test [5], the system named is Klebsiella pneumoniae. Put plainly: Antimicrobial activity against ESBL-producing Klebsiella pneumoniae ATCC 700603.
Test [6] relates to Enterococcus faecalis. Put plainly: Antimicrobial activity against Vancomycin-resistant Enterococcus faecalis ATCC 51299.
The test system of another test is Pseudomonas aeruginosa. Put plainly: Antimicrobial activity against Pseudomonas aeruginosa ATCC 27853.
The next test concerns Escherichia coli. Put plainly: Antimicrobial activity against Escherichia coli ATCC 25922.
Test [7] concerns Staphylococcus epidermidis. Put plainly: Antimicrobial activity against methicillin-susceptible Staphylococcus epidermidis ATCC 12228.
Test [8] relates to Enterococcus faecalis. Put plainly: Antimicrobial activity against Vancomycin-sensitive Enterococcus faecalis ATCC 29212.
Test [9] concerns Klebsiella pneumoniae. Put plainly: Antimicrobial activity against Klebsiella pneumoniae 7.

Broadly, the MIC is the lowest concentration found to suppress growth. Turning to `CNC(=N)c1ccc2cc(-c3ccc(Oc4ccc(-c5cc6ccc(C(=N)NC)cc6[nH]5)nc4)cc3)[nH]c2c1`, the MIC is 2 µg/mL (≈ 3.89 µM) in the test on Staphylococcus aureus [1]; 64 µg/mL (≈ 125 µM) in the test on Klebsiella pneumoniae [2]; 128 µg/mL (≈ 249 µM) against Providencia rettgeri; 1 µg/mL (≈ 1.95 µM) in the test with Enterococcus faecium; 16 µg/mL (≈ 31.2 µM) against Citrobacter freundii; more than 128 µg/mL in test [3]. Also, the minimum inhibitory concentration (MIC) was determined as 2 µg/mL (≈ 3.89 µM) against Staphylococcus aureus [4]; 128 µg/mL (≈ 249 µM) with Proteus vulgaris; 64 µg/mL (≈ 125 µM) in the test with Klebsiella pneumoniae [5]; 2 µg/mL (≈ 3.89 µM) against Enterococcus faecalis [6]; 64 µg/mL (≈ 125 µM) against Pseudomonas aeruginosa; 16 µg/mL (≈ 31.2 µM) against Escherichia coli. The MIC in test [7] turned out to be 0.25 µg/mL (≈ 0.487 µM); with Enterococcus faecalis [8], 2 µg/mL (≈ 3.89 µM); against Klebsiella pneumoniae [9], 64 µg/mL (≈ 125 µM).

In the case of `CN(C)C(=N)c1ccc2cc(-c3ccc(Oc4ccc(-c5cc6ccc(C(=N)N(C)C)cc6[nH]5)c(C(F)(F)F)c4)cc3)[nH]c2c1`, the MIC against Staphylococcus aureus [1] is 2 µg/mL (≈ 3.29 µM); in the test with Klebsiella pneumoniae [2], more than 128 µg/mL; against Providencia rettgeri, more than 128 µg/mL; with Enterococcus faecium, 8 µg/mL (≈ 13.1 µM); in the test with Citrobacter freundii, 64 µg/mL (≈ 105 µM); in test [3], more than 128 µg/mL. Besides, the MIC in the test with Staphylococcus aureus [4] is 2 µg/mL (≈ 3.29 µM); against Proteus vulgaris it was 128 µg/mL (≈ 210 µM); in the test with Klebsiella pneumoniae [5], more than 128 µg/mL; in the test with Enterococcus faecalis [6] it was 8 µg/mL (≈ 13.1 µM); with Pseudomonas aeruginosa, more than 128 µg/mL; in the test on Escherichia coli, 64 µg/mL (≈ 105 µM). Moreover, the values for the MIC (in test [7]; in the test on Enterococcus faecalis [8]; in the test on Klebsiella pneumoniae [9]) were 2 µg/mL (≈ 3.29 µM), 8 µg/mL (≈ 13.1 µM) and more than 128 µg/mL, respectively.

As for `CNC(=N)c1ccc2cc(-c3ccc(Oc4ccc(-c5cc6ccc(C(=N)NC)cc6[nH]5)c(Cl)c4)cc3)[nH]c2c1`, the MIC was 4 µg/mL (≈ 7.31 µM) against Staphylococcus aureus [1]; 64 µg/mL (≈ 117 µM) with Klebsiella pneumoniae [2]; 128 µg/mL (≈ 234 µM) in the test on Providencia rettgeri; 8 µg/mL (≈ 14.6 µM) in the test with Enterococcus faecium; 64 µg/mL (≈ 117 µM) in the test with Citrobacter freundii; 128 µg/mL (≈ 234 µM) in [3]. Moreover, the MIC against Staphylococcus aureus [4] amounted to 4 µg/mL (≈ 7.31 µM); in the test on Proteus vulgaris, 64 µg/mL (≈ 117 µM); in the test on Klebsiella pneumoniae [5], 64 µg/mL (≈ 117 µM); with Enterococcus faecalis [6], 16 µg/mL (≈ 29.2 µM); with Pseudomonas aeruginosa, 128 µg/mL (≈ 234 µM); in the test on Escherichia coli, 64 µg/mL (≈ 117 µM). For the same compound, the MIC in [7] was found to be 2 µg/mL (≈ 3.66 µM); in the test with Enterococcus faecalis [8], 16 µg/mL (≈ 29.2 µM); against Klebsiella pneumoniae [9], 64 µg/mL (≈ 117 µM).

With `COc1cc(Oc2ccc(-c3cc4ccc(C(=N)NC(C)C)cc4[nH]3)cc2)ccc1-c1cc2ccc(C(=N)NC(C)C)cc2[nH]1`, the MIC was 0.25 µg/mL (≈ 0.418 µM) against Staphylococcus aureus [1]; 64 µg/mL (≈ 107 µM) in the test on Klebsiella pneumoniae [2]; 64 µg/mL (≈ 107 µM) in the test with Providencia rettgeri; 0.25 µg/mL (≈ 0.418 µM) against Enterococcus faecium; 32 µg/mL (≈ 53.4 µM) with Citrobacter freundii; more than 128 µg/mL in test [3]. Besides, the MIC is 0.25 µg/mL (≈ 0.418 µM) in the test on Staphylococcus aureus [4]; 64 µg/mL (≈ 107 µM) against Proteus vulgaris; 64 µg/mL (≈ 107 µM) in the test with Klebsiella pneumoniae [5]; 1 µg/mL (≈ 1.67 µM) against Enterococcus faecalis [6]; 128 µg/mL (≈ 214 µM) in the test with Pseudomonas aeruginosa; 16 µg/mL (≈ 26.7 µM) in the test with Escherichia coli. In addition, the MIC in test [7] stood at 0.125 µg/mL (≈ 0.209 µM); in the test on Enterococcus faecalis [8] it was 0.25 µg/mL (≈ 0.418 µM); with Klebsiella pneumoniae [9] it was 64 µg/mL (≈ 107 µM).

In the case of `CC(C)NC(=N)c1ccc2cc(-c3ccc(Oc4ccc(-c5cc6ccc(C(=N)NC(C)C)cc6[nH]5)c(C(F)(F)F)c4)cn3)[nH]c2c1`, the MIC in the test with Staphylococcus aureus [1] was 0.5 µg/mL (≈ 0.784 µM); against Klebsiella pneumoniae [2] it was 16 µg/mL (≈ 25.1 µM); with Providencia rettgeri, 32 µg/mL (≈ 50.2 µM); with Enterococcus faecium it was 0.5 µg/mL (≈ 0.784 µM); with Citrobacter freundii it was 8 µg/mL (≈ 12.5 µM); in [3] it was 32 µg/mL (≈ 50.2 µM). Moreover, the MIC against Staphylococcus aureus [4] was found to be 0.5 µg/mL (≈ 0.784 µM); in the test with Proteus vulgaris, 16 µg/mL (≈ 25.1 µM); in the test with Klebsiella pneumoniae [5], 16 µg/mL (≈ 25.1 µM); against Enterococcus faecalis [6] it was 0.5 µg/mL (≈ 0.784 µM); in the test with Pseudomonas aeruginosa, 32 µg/mL (≈ 50.2 µM); against Escherichia coli it was 8 µg/mL (≈ 12.5 µM). In addition, the results for the MIC (in [7]; in the test with Enterococcus faecalis [8]; in the test with Klebsiella pneumoniae [9]) were 0.5 µg/mL (≈ 0.784 µM), 0.5 µg/mL (≈ 0.784 µM) and 16 µg/mL (≈ 25.1 µM), respectively.

Consider `CC(C)NC(=N)c1ccc2cc(-c3ccc(Oc4ccc(-c5cc6ccc(C(=N)NC(C)C)cc6[nH]5)nc4)cc3)[nH]c2c1`, for which the MIC was 0.25 µg/mL (≈ 0.439 µM) with Staphylococcus aureus [1]; 8 µg/mL (≈ 14 µM) in the test on Klebsiella pneumoniae [2]; 4 µg/mL (≈ 7.02 µM) with Providencia rettgeri; 0.25 µg/mL (≈ 0.439 µM) in the test on Enterococcus faecium; 4 µg/mL (≈ 7.02 µM) against Citrobacter freundii; 16 µg/mL (≈ 28.1 µM) in test [3]. Further, the MIC against Staphylococcus aureus [4] came to 0.125 µg/mL (≈ 0.219 µM); in the test with Proteus vulgaris it was 8 µg/mL (≈ 14 µM); against Klebsiella pneumoniae [5], 8 µg/mL (≈ 14 µM); in the test with Enterococcus faecalis [6], 0.5 µg/mL (≈ 0.878 µM); in the test with Pseudomonas aeruginosa, 64 µg/mL (≈ 112 µM); in the test on Escherichia coli it was 2 µg/mL (≈ 3.51 µM). The MIC was 0.125 µg/mL (≈ 0.219 µM) in test [7], 0.25 µg/mL (≈ 0.439 µM) in the test on Enterococcus faecalis [8] and 8 µg/mL (≈ 14 µM) in the test on Klebsiella pneumoniae [9].

With `CN(C)C(=N)c1ccc2cc(-c3ccc(Oc4ccc(-c5cc6ccc(C(=N)N(C)C)cc6[nH]5)c(Cl)c4)cc3)[nH]c2c1`, the MIC against Staphylococcus aureus [1] was 8 µg/mL (≈ 13.9 µM); against Klebsiella pneumoniae [2], 128 µg/mL (≈ 223 µM); against Providencia rettgeri it was more than 128 µg/mL; in the test on Enterococcus faecium, 16 µg/mL (≈ 27.8 µM); in the test with Citrobacter freundii, 64 µg/mL (≈ 111 µM); in test [3], more than 128 µg/mL. For the same compound, the MIC in the test with Staphylococcus aureus [4] was 2 µg/mL (≈ 3.48 µM); with Proteus vulgaris, 128 µg/mL (≈ 223 µM); against Klebsiella pneumoniae [5], more than 128 µg/mL; against Enterococcus faecalis [6], 16 µg/mL (≈ 27.8 µM); against Pseudomonas aeruginosa it was more than 128 µg/mL; against Escherichia coli, 32 µg/mL (≈ 55.6 µM). Besides, the figures for the MIC (in [7]; in the test with Enterococcus faecalis [8]; in the test on Klebsiella pneumoniae [9]) were 2 µg/mL (≈ 3.48 µM), 16 µg/mL (≈ 27.8 µM) and more than 128 µg/mL, respectively.
